Test [1] concerns the target T1, Amyloid-beta precursor protein (Homo sapiens, UniProt P05067). The experiment in a line: Inhibition of amyloid beta 1 to 42 aggregation (unknown origin) incubated for 24 hrs by inverted fluorescence microscopic analysis.
Test [2] concerns the target T1, Amyloid-beta precursor protein. As to the kind of experiment: Inhibition of amyloid beta 1 to 42 aggregation (unknown origin) incubated for 24 hrs by inverted fluorescence microscopic analysis relative to control. The note with it: concentration not given here.
For test [3] the target is unchanged. As to the kind of experiment: Inhibition of amyloid beta 1 to 42 aggregation (unknown origin) incubated for 24 hrs by ThT fluorescence assay relative to control. The note with it: concentration not given here.
The target is the same in test [4]. The experiment in a line: Inhibition of amyloid beta 1 to 42 aggregation (unknown origin) incubated for 24 hrs by ThT fluorescence assay.

Where only a bound is given, the exact number is not on record here.

T1 sequence (P05067 whole entry): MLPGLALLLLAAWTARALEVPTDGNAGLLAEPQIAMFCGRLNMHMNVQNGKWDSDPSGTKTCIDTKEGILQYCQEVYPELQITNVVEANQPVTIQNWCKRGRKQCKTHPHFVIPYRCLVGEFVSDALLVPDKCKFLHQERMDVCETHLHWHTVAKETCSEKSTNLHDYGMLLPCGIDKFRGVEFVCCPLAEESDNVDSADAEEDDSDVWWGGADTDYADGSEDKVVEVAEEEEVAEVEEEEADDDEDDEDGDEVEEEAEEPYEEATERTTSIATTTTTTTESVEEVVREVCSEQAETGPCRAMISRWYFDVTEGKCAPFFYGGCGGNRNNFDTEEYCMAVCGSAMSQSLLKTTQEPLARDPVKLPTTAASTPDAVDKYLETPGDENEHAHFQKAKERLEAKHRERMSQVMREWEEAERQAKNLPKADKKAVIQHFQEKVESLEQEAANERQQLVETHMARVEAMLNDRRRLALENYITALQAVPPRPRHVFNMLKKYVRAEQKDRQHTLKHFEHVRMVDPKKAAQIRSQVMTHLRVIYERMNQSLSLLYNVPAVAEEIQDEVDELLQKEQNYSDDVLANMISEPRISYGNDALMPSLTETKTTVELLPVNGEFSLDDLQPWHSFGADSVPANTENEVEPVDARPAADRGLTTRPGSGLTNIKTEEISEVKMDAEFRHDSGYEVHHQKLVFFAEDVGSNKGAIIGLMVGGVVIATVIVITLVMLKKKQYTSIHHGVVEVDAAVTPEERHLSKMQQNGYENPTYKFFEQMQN

As for `O=C(O)c1cc(O)c(O)c(O)c1-c1c(C(=O)O)cc(O)c(O)c1O`, in test [1], the EC50 was 562 µM. Further, the inhibition in test [2] and in test [3] was less than 0.01% each time.

Take `O=C(O[C@@H]1O[C@@H]2COC(=O)c3cc(O)c(O)c(O)c3-c3c(cc(O)c(O)c3O)C(=O)O[C@H]([C@H]1O)[C@@H]2O)c1cc(O)c(O)c(O)c1` [CORILAGIN]: the EC50 in test [1] was 5.04 µM; in test [4], 14 µM. Further, the inhibition in test [2] is 25%; in test [3], 14%.

The compound `O=c1oc2c(O)c(O)cc3c(=O)oc4c(O)c(O)cc1c4c23` [ELLAGIC ACID] gave an EC50 in test [1] of 563 µM. Also, the figures for the inhibition in test [2] and in test [3] were 0.15% and less than 0.01%, respectively.

Consider `O=C(O)c1cc(O)c(O)c(O)c1` [GALLIC ACID], for which the EC50 in test [1] is 18.8 µM; in test [4], 9.99 µM. This compound also showed an inhibition in test [2] of 92%.

For `O=C1O[C@H]2[C@@H]3OC(=O)c4cc(O)c(O)c(O)c4-c4c(cc(O)c(O)c4O)C(=O)OC[C@H]2O[C@@H](OC(=O)c2cc(O)c(O)c(O)c2)[C@@H]3OC(=O)c2cc(O)c(O)c3c2[C@@H]2C1=CC(=O)[C@](O)(O3)C2(O)O` [GERANIIN], the results for the EC50 in test [1] and in test [4] were 7.03 µM and 10.5 µM, respectively.
